From publication PMC7796460, “Relation of Metal-Binding Property and Selective Toxicity of 8-Hydroxyquinoline Derived Mannich Bases Targeting Multidrug Resistant Cancer Cells” (Cancers, 2021)
Marks after values point to notes of the source that are not given here. Blank lines part the entries; values can stand above or below the compound they belong to.

Columns and labels:
KB-v1 cells = assay: MTT viability assay, KB-v1; assay type: cell-based; settings: Homo sapiens, KB-V1, 72 h, MTT 72 h
Description: (§1) MDCK II canine kidney cells, A431 epidermoid carcinoma cells, the human uterine sarcoma cell lines MES-SA and the doxorubicin selected MES-SA-Dx5 were obtained from ATCC (MDCK II: No. CRL-2936™, A431: No. CRL-1555™, MES-SA: No. CRL-1976™, MES-SA/Dx5: No. CRL-1977™). ABCB1 was expressed in A431 and MES-SA cells using lentiviral transduction. The human cervix carcinoma cell line KB-3-1 and the vinblastine selected KB-v1were kind gifts from Dr. Michael M. Gottesman, National Institutes of Health. The phenotype of the resistant cells was verified using cytotoxicity assays. MDCK-B1 and MDCK-MM were established by the Sleeping Beauty transposon-based gene delivery system. OVCAR-8 and NCI-ADRres cells (obtained from the Division of Cancer Treatment and Diagnosis (DCTD) Tumor Repository (National Cancer Institute, Frederick, MD, USA)) were cultivated in RPMI-1640 (Sigma Aldrich, Budapest, Hungary), and other cell lines were cultivated in Dulbecco’s Modified Eagle Medium (DMEM, Sigma Aldrich, Budapest, Hungary), supplemented with 10% fetal bovine serum, 5 mM glutamine, and 50 unit/mL penicillin and streptomycin (Life Technologies, Carlsbad, CA, USA). All cell lines were cultivated at 37 °C, 5% CO2.
(§2) MTT viability assays were performed as described earlier with minor modifications. Briefly, cells were seeded into 96-well tissue culture plates (Sarstedt, Newton, NC, USA/Orange, Braine-l’Alleud, Belgium) at a density of 5000 cells/well and allowed to attach overnight. Test compounds were added to achieve the required final concentration in a final volume of 100 µL per well. After an incubation period of 72 h, the supernatant was removed and fresh medium containing the MTT reagent (0.083 mg/mL) was added. Incubation with MTT at 37 °C was terminated after 1 h by removing the supernatant and lysing the cells with 100 µL DMSO per well. Viability of the cells was measured spectrophotometrically based on the absorbance values at 540 nm using either a Perkin Elmer Victor X3 or an EnSpire microplate reader. Data were background corrected by subtraction of the signal obtained from unstained cell lysates and normalized to untreated cells. Curves were fitted by Prism software (GraphPad Software Inc., San Diego, CA, USA) using the sigmoidal dose-response model (comparing variable and fixed slopes). […] Significance was calculated using unpaired t-tests; results are given as *: p ≤ 0.05, **: p ≤ 0.01, ***: p ≤ 0.001, ****: p ≤ 0.0001.

MES-SA cells = assay: ROS determination with DCFDA, MES-SA; assay type: cell-based, human; settings: 2 h
Protocol: (§3) Measurements were performed as described earlier. Briefly, cells were harvested, washed with PBS, and incubated with 10 µM DCFDA in a water bath shaker at 37 °C for 30 min in a density of 3 × 10^6 cells/mL. After washing with PBS, cells were seeded to 96-well plates in PBS in a density of 2 × 10^4 cells/well. Following the measurement of the basal fluorescence, test compounds were added in different concentrations and the fluorescence of the samples was followed at time intervals of 10 min. DCFDA solution in buffer was used as a cell free control to test for interaction of the test compounds with DCFDA. Data were analyzed as fold change of fluorescence compared to basal levels and untreated cells. Significance was calculated using unpaired t-tests; results are given as *: p ≤ 0.05, **: p ≤ 0.01, ***: p ≤ 0.001, ****: p ≤ 0.0001.
(§4) Table S3: Characterization of intracellular ROS production with the DCFDA assay for P -gp negative MES-SA and P-gp positive MES-SA/Dx5 cells. Fold changes in fluorescence are shown after a 2 h with the investigated 8 -hydroxyquinoline ligands. Data S-refer to Figure 7 and allow […]
(§5) concentration range from 6.25µ M to 50µ M. Fold change of fluorescence obtained in the presence of 5 mM NAC is given in brackets.

MDCK cells = assay: MTT viability assay, MDCK; assay type: cell-based, canine; settings: Canis lupus familiaris, 72 h, MTT 72 h
Description: as §1, §2

MDCK-B1 cells = assay: MTT viability assay, MDCK-B1 (wild-type Pgp); assay type: cell-based, canine; settings: for IC50: Canis lupus familiaris, 72 h, MTT 72 h
Description: as §1, §2

[1] = design: method as in PMID 21275772; settings: T = 25 °C, I = 0.2 M (KCl), cited from earlier work; for pKa (additional): group named in the cell
A431-B1 cells = assay: MTT viability assay, A431-B1; assay type: cell-based; settings: for IC50: 72 h, MTT 72 h
Description: as §1, §2

A431 cells = assay: MTT viability assay, A431; assay type: cell-based; settings: Homo sapiens, A-431, 72 h, MTT 72 h
Description: as §1, §2

MES-SA/Dx5 cells = assay: ROS determination with DCFDA, MES-SA/Dx5; assay type: cell-based, human; settings: 2 h
Protocol: as §3, §4, §5

MES-SA/B1 cells = assay: MTT viability assay, MES-SA/B1; assay type: cell-based, human; settings: for IC50: Homo sapiens, MES-SA, 72 h, MTT 72 h
Description: as §1, §2

OVCAR-8 cells = assay: MTT viability assay, OVCAR-8; assay type: cell-based; settings: Homo sapiens, OVCAR-8, 72 h, MTT 72 h
Description: as §1, §2

MDCK-MM cells = assay: MTT viability assay, MDCK-MM (non-functional Pgp); assay type: cell-based, canine; settings: for IC50: Canis lupus familiaris, 72 h, MTT 72 h; for SR MDCK-MM: IC50 MDCK vs. MDCK-MM
Description: as §1, §2

KB-3-1 cells = assay: MTT viability assay, KB-3-1; assay type: cell-based; settings: Homo sapiens, KB 3-1, 72 h, MTT 72 h
Description: as §1, §2

[2] = presence of 1 µM Tariquidar (values in brackets)
[3] = 6.25 µM, presence of 5 mM NAC (brackets)
[4] = 12.5 µM, presence of 5 mM NAC (brackets)
[5] = 25 µM, presence of 5 mM NAC (brackets)
[6] = 50 µM, presence of 5 mM NAC (brackets)
[7] = IC50 MDCK vs. MDCK-B1, absence of Tariquidar
[8] = IC50 MDCK vs. MDCK-B1, presence of 1 µM Tariquidar (brackets)
[9] = IC50 A431 vs. A431-B1, absence of Tariquidar
[10] = IC50 A431 vs. A431-B1, presence of 1 µM Tariquidar (brackets)
[11] = MES-SA/Dx5, 6.25 µM, presence of 5 mM NAC (brackets)
[12] = MES-SA/Dx5, 12.5 µM, presence of 5 mM NAC (brackets)
[13] = MES-SA/Dx5, 25 µM, presence of 5 mM NAC (brackets)
[14] = MES-SA/Dx5, 50 µM, presence of 5 mM NAC (brackets)
[15] = IC50 MES-SA vs. MES-SA/B1, absence of Tariquidar
[16] = IC50 MES-SA vs. MES-SA/B1, presence of 1 µM Tariquidar (brackets)
[17] = presence of 1 µM Tariquidar (brackets)

IC50 (KB-v1 cells; absence of Tariquidar): 6.42 ± 2.19 µM
IC50 (KB-v1 cells; [2]): 11.3 µM
IC50 (A431-B1 cells; absence of Tariquidar): 4.05 ± 1.86 µM
IC50 (A431-B1 cells; [2]): 7.64 µM
IC50 (A431 cells; absence of Tariquidar): 3.31 ± 1.61 µM
IC50 (A431 cells; [2]): 3.18 µM
IC50 (OVCAR-8 cells; absence of Tariquidar): 3.16 ± 0.52 µM
IC50 (OVCAR-8 cells; [2]): 3.28 µM
IC50 (KB-3-1 cells; absence of Tariquidar): 9.55 ± 2.55 µM
IC50 (KB-3-1 cells; [2]): 11.7 µM
SMILES: Oc1c(CN2CCOCC2)ccc2cccnc12 [Compound Q-2, 7-(morpho-lino-methyl)quinolin-8-ol]
Fold change in fluorescence (DCFDA) (MES-SA cells; 6.25 µM): 1.598± 0.32
Fold change in fluorescence (DCFDA) (MES-SA cells; [3]): 1.096± 0.16
Fold change in fluorescence (DCFDA) (MES-SA cells; 12.5 µM): 1.792± 0.53
Fold change in fluorescence (DCFDA) (MES-SA cells; [4]): 0.930± 0.16
Fold change in fluorescence (DCFDA) (MES-SA cells; 25 µM): 2.101± 0.86
Fold change in fluorescence (DCFDA) (MES-SA cells; [5]): 0.988± 0.15
Fold change in fluorescence (DCFDA) (MES-SA cells; 50 µM): 2.454± 1.39
Fold change in fluorescence (DCFDA) (MES-SA cells; [6]): 0.946± 0.14
IC50 (MDCK cells; absence of Tariquidar): 9.15 ± 3.51 µM
IC50 (MDCK cells; [2]): 11.1 µM
IC50 (MDCK-B1 cells; absence of Tariquidar): 12 ± 7.84 µM
IC50 (MDCK-B1 cells; [2]): 12.1 µM
SR MDCK-B1 (MDCK-B1 cells; [7]): 0.76
SR MDCK-B1 (MDCK-B1 cells; [8]): 0.92
pKa (NquinoliniumH+) [1]: 2.59 ^a
pKa (OH) [1]: 10.37 ^a
pKa (additional) [1]: 6.25 ^a (NmorpholiniumH^+)
SR A431-B1 (A431-B1 cells; [9]): 0.82
SR A431-B1 (A431-B1 cells; [10]): 0.42
Fold change in fluorescence (DCFDA) (MES-SA/Dx5 cells; MES-SA/Dx5, 6.25 µM): 1.863± 0.81
Fold change in fluorescence (DCFDA) (MES-SA/Dx5 cells; [11]): 1.024± 0.19
Fold change in fluorescence (DCFDA) (MES-SA/Dx5 cells; MES-SA/Dx5, 12.5 µM): 2.324± 1.25
Fold change in fluorescence (DCFDA) (MES-SA/Dx5 cells; [12]): 1.137± 0.32
Fold change in fluorescence (DCFDA) (MES-SA/Dx5 cells; MES-SA/Dx5, 25 µM): 3.348± 2.35
Fold change in fluorescence (DCFDA) (MES-SA/Dx5 cells; [13]): 1.074± 0.28
Fold change in fluorescence (DCFDA) (MES-SA/Dx5 cells; MES-SA/Dx5, 50 µM): 4.103± 2.67
Fold change in fluorescence (DCFDA) (MES-SA/Dx5 cells; [14]): 1.154± 0.22
IC50 (MES-SA/B1 cells; absence of Tariquidar): 3.12 ± 0.28 µM
IC50 (MES-SA/B1 cells; [2]): 3.6 µM
SR MES-SA/B1 (MES-SA/B1 cells; [15]): 2.23
SR MES-SA/B1 (MES-SA/B1 cells; [16]): 1.29
IC50 (MDCK-MM cells; absence of Tariquidar): 9.74 ± 4.04 µM
IC50 (MDCK-MM cells; [2]): 9.01 µM
SR MDCK-MM (MDCK-MM cells; absence of Tariquidar): 0.82
SR MDCK-MM (MDCK-MM cells; [17]): 1.23

IC50 (KB-v1 cells; absence of Tariquidar): 1.56 ± 0.57 µM
IC50 (KB-v1 cells; [2]): 7.47 µM
IC50 (A431-B1 cells; absence of Tariquidar): 1.14 ± 0.16 µM
IC50 (A431-B1 cells; [2]): 5.58 µM
IC50 (A431 cells; absence of Tariquidar): 3.91 ± 0.83 µM
IC50 (A431 cells; [2]): 4.09 µM
IC50 (OVCAR-8 cells; absence of Tariquidar): 3.15 ± 0.36 µM
IC50 (OVCAR-8 cells; [2]): 3.72 µM
IC50 (KB-3-1 cells; absence of Tariquidar): 6.19 ± 0.12 µM
IC50 (KB-3-1 cells; [2]): 6.69 µM
SMILES: Oc1c(CN2CCCCC2)ccc2cccnc12 [Compound Q-3, 7-(piperidin-1-ylmethyl)quinolin-8-ol]
Fold change in fluorescence (DCFDA) (MES-SA cells; 6.25 µM): 1.288± 0.24
Fold change in fluorescence (DCFDA) (MES-SA cells; [3]): 1.097± 0.11
Fold change in fluorescence (DCFDA) (MES-SA cells; 12.5 µM): 1.372± 0.22
Fold change in fluorescence (DCFDA) (MES-SA cells; [4]): 1.080± 0.27
Fold change in fluorescence (DCFDA) (MES-SA cells; 25 µM): 1.464± 0.39
Fold change in fluorescence (DCFDA) (MES-SA cells; [5]): 1.119± 0.24
Fold change in fluorescence (DCFDA) (MES-SA cells; 50 µM): 1.753± 0.37
Fold change in fluorescence (DCFDA) (MES-SA cells; [6]): 1.054± 0.25
IC50 (MDCK cells; absence of Tariquidar): 7.61 ± 3.06 µM
IC50 (MDCK cells; [2]): 10.2 µM
IC50 (MDCK-B1 cells; absence of Tariquidar): 3.22 ± 1.02 µM
IC50 (MDCK-B1 cells; [2]): 12.4 µM
SR MDCK-B1 (MDCK-B1 cells; [7]): 2.36
SR MDCK-B1 (MDCK-B1 cells; [8]): 0.82
pKa (NquinoliniumH+) [1]: 2.69 ^a
pKa (OH) [1]: 6.99 ^a
pKa (additional) [1]: >11.5 ^a
SR A431-B1 (A431-B1 cells; [9]): 3.96
SR A431-B1 (A431-B1 cells; [10]): 0.73
Fold change in fluorescence (DCFDA) (MES-SA/Dx5 cells; MES-SA/Dx5, 6.25 µM): 1.449± 0.46
Fold change in fluorescence (DCFDA) (MES-SA/Dx5 cells; [11]): 0.954± 0.15
Fold change in fluorescence (DCFDA) (MES-SA/Dx5 cells; MES-SA/Dx5, 12.5 µM): 1.400± 0.18
Fold change in fluorescence (DCFDA) (MES-SA/Dx5 cells; [12]): 1.050± 0.09
Fold change in fluorescence (DCFDA) (MES-SA/Dx5 cells; MES-SA/Dx5, 25 µM): 1.586± 0.22
Fold change in fluorescence (DCFDA) (MES-SA/Dx5 cells; [13]): 1.201± 0.17
Fold change in fluorescence (DCFDA) (MES-SA/Dx5 cells; MES-SA/Dx5, 50 µM): 1.786± 0.36
Fold change in fluorescence (DCFDA) (MES-SA/Dx5 cells; [14]): 1.189± 0.18
IC50 (MES-SA/B1 cells; absence of Tariquidar): 0.83 ± 0.02 µM
IC50 (MES-SA/B1 cells; [2]): 1.5 µM
SR MES-SA/B1 (MES-SA/B1 cells; [15]): 4.95
SR MES-SA/B1 (MES-SA/B1 cells; [16]): 1.99
IC50 (MDCK-MM cells; absence of Tariquidar): 6.67 ± 2 µM
IC50 (MDCK-MM cells; [2]): 8.45 µM
SR MDCK-MM (MDCK-MM cells; absence of Tariquidar): 1.14
SR MDCK-MM (MDCK-MM cells; [17]): 1.20
